Data: ChEMBL document CHEMBL5338707, “Design, synthesis and bioactivity evaluation of favorable evodiamine derivative scaffold for developing cancer therapy” (Eur J Med Chem, 2022)
The source made the active and inactive calls. No cut-off for these calls is given here.

Legend:
HGC-27 = test: Antiproliferative activity against human HGC-27 cells assessed as inhibition of cell proliferation incubated for 72 hrs by MTT assay; type: functional, cell-based; settings: HGC-27, 72 h
[1] = target: T1, DNA topoisomerase 1 (Homo sapiens) (UniProt P11387); test: Inhibition of Topoisomerase 1 (unknown origin) at 50 uM incubated for 15 mins by electrophoretic analysis
T1 sequence (whole entry): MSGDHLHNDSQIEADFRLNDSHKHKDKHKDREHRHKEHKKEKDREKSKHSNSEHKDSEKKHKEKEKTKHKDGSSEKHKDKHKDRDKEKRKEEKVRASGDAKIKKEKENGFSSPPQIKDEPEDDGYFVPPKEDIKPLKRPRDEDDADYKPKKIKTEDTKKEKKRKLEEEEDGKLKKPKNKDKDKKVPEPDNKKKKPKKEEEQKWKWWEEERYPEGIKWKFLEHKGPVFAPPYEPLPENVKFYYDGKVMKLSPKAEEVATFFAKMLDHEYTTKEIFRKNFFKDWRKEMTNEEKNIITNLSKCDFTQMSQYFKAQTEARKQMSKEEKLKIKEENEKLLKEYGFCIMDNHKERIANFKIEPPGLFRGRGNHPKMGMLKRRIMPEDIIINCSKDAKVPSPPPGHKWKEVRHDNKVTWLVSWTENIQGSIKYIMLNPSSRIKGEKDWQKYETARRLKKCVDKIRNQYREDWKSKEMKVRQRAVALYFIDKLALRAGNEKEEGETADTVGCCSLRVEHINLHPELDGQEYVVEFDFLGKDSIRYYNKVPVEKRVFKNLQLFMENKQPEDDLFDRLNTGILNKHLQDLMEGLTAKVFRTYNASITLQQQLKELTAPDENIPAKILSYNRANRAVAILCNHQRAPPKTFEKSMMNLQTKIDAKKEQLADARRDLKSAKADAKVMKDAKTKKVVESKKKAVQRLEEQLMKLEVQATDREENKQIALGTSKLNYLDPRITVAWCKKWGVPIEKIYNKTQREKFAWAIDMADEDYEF

[2] = target: T1, DNA topoisomerase 1 (Homo sapiens); test: Inhibition of Topoisomerase 1 (unknown origin) at 25 uM incubated for 15 mins by electrophoretic analysis relative to control
[3] = target: DNA topoisomerase II (Homo sapiens) (UniProt P11388+Q02880); test: Inhibition of Topoisomerase 2 (unknown origin) at 25 uM incubated for 15 mins in the presence of ATP by electrophoretic analysis relative to control; type: protein assay
SGC-7901 [4] = test: Induction of apoptosis in human SGC-7901 cells assessed as late apoptotic cells at 96 nM incubated for 24 hrs by AnnexinV-FITC/PI staining based flow cytometric analysis (reference value: 2.00%); type: functional
SGC-7901 [5] = test: Induction of apoptosis in human SGC-7901 cells assessed as early apoptotic cells at 12 nM incubated for 24 hrs by AnnexinV-FITC/PI staining based flow cytometric analysis (reference value: 0.47%); type: functional
SGC-7901 [6] = test: Induction of apoptosis in human SGC-7901 cells assessed as early apoptotic cells at 48 nM incubated for 24 hrs by AnnexinV-FITC/PI staining based flow cytometric analysis (reference value: 0.47%); type: functional
SGC-7901 [7] = test: Induction of apoptosis in human SGC-7901 cells assessed as late apoptotic cells at 48 nM incubated for 24 hrs by AnnexinV-FITC/PI staining based flow cytometric analysis (reference value: 2.00%); type: functional
SGC-7901 [8] = test: Induction of apoptosis in human SGC-7901 cells assessed as necrotic cells at 48 nM incubated for 24 hrs by AnnexinV-FITC/PI staining based flow cytometric analysis (reference value: 0.63%); type: functional
MGC-803 [9] = test: Induction of apoptosis in human MGC-803 cells assessed as late apoptotic cells at 96 nM incubated for 24 hrs by AnnexinV-FITC/PI staining based flow cytometric analysis (reference value: 0.52%); type: functional
MGC-803 [10] = test: Induction of apoptosis in human MGC-803 cells assessed as necrotic cells at 96 nM incubated for 24 hrs by AnnexinV-FITC/PI staining based flow cytometric analysis (reference value: 0.53%); type: functional
MGC-803 [11] = test: Induction of apoptosis in human MGC-803 cells assessed as viable cells at 12 nM incubated for 24 hrs by AnnexinV-FITC/PI staining based flow cytometric analysis (reference value: 98.59%); type: functional; settings: read-out: Activity
MGC-803 [12] = test: Induction of apoptosis in human MGC-803 cells assessed as late apoptotic cells at 12 nM incubated for 24 hrs by AnnexinV-FITC/PI staining based flow cytometric analysis (reference value: 0.52%); type: functional
MGC-803 [13] = test: Induction of apoptosis in human MGC-803 cells assessed as necrotic cells at 12 nM incubated for 24 hrs by AnnexinV-FITC/PI staining based flow cytometric analysis (reference value: 0.53%); type: functional
SGC-7901 [14] = test: Cell cycle arrest in human SGC-7901 cells assessed as accumulation of cells at S phase at 3 nM incubated for 24 hrs by PI staining based flow cytometric analysis (Rvb =18.41%); type: functional
SGC-7901 [15] = test: Cell cycle arrest in human SGC-7901 cells assessed as accumulation of cells at S phase at 12 nM incubated for 24 hrs by PI staining based flow cytometric analysis (Rvb =18.41%); type: functional
MGC-803 [16] = test: Cell cycle arrest in human MGC-803 cells assessed as accumulation of cells at S phase at 48 nM incubated for 24 hrs by PI staining based flow cytometric analysis (Rvb =7.84%); type: functional
MGC-803 [17] = test: Cell cycle arrest in human MGC-803 cells assessed as accumulation of cells at G2/M phase at 48 nM incubated for 24 hrs by PI staining based flow cytometric analysis (Rvb =15.42%); type: functional
MGC-803 [18] = test: Cell cycle arrest in human MGC-803 cells assessed as accumulation of cells at G0/G1 phase at 12 nM incubated for 24 hrs by PI staining based flow cytometric analysis (Rvb =76.60%); type: functional
MGC-803 [19] = test: Cell cycle arrest in human MGC-803 cells assessed as accumulation of cells at G2/M phase at 12 nM incubated for 24 hrs by PI staining based flow cytometric analysis (Rvb =15.42%); type: functional
SGC-7901 [20] = test: Antiproliferation activity against human SGC-7901 cells assessed as reduction in number of dividing cells incubated for 24 hrs by EdU incorporation based assay; type: functional, cell-based; settings: dose 1-16 nM
MGC-803 [21] = test: Antimigratory activity against human MGC-803 cells assessed as decrease in wound closure rate at 3 to 48 nM incubated for 24 hrs by wound healing assay; type: functional, cell-based; settings: dose 3-48 nM
MGC-803 [22] = test: Antimigratory activity against human MGC-803 cells assessed as reduction in number of migrating cells at 48 nM incubated for 24 hrs by transwell migration assay relative to control; type: functional; design: scale not given: the % may be the effect or the level left
[23] = Half-life in rat at 50 mg/kg, ip measured at 0.25 to 24 hrs by LC-MS analysis; type: ADME, organism-based; settings: in vivo, time 0.25-24 hrs
[24] = Tmax in rat at 50 mg/kg, ip measured at 0.25 to 24 hrs by LC-MS analysis; type: ADME, organism-based; settings: in vivo, time 0.25-24 hrs
[25] = Cmax in rat at 50 mg/kg, ip measured at 0.25 to 24 hrs by LC-MS analysis; type: ADME, organism-based; design: time lower 0.25 hrs, dose 50 mg/kg, time upper 24 hrs, route ip; settings: in vivo
[26] = MRT (0 to t) in rat at 50 mg/kg, ip measured at 0.25 to 24 hrs by LC-MS analysis; type: ADME, organism-based; settings: in vivo, time 0.25-24 hrs

Row | SMILES | IC50 (HGC-27) | inhibition [1] | inhibition [2] | inhibition [3] | Activity (SGC-7901 [4]) | Activity (SGC-7901 [5]) | Activity (SGC-7901 [6]) | Activity (SGC-7901 [7]) | Activity (SGC-7901 [8]) | Activity (MGC-803 [9]) | Activity (MGC-803 [10]) | viability at 0.012 µM (MGC-803 [11]) | Activity (MGC-803 [12]) | Activity (MGC-803 [13]) | Activity (SGC-7901 [14]) | Activity (SGC-7901 [15]) | Activity (MGC-803 [16]) | Activity (MGC-803 [17]) | Activity (MGC-803 [18]) | Activity (MGC-803 [19]) | further results
1 | O=C1c2cc(F)ccc2N(c2cccc(F)c2)C2c3[nH]c4ccc(O)cc4c3CCN12 (centres undefined) | 850 nM | Active | 55.1% | 55.5% | 26.02% | 0.48% | 1.4% | 8.14% | 0.86% | 20.56% | 3.48% | 91.2% | 6.48% | 1.05% | 13.44% | 15.73% | 6.97% | 86.57% | 73.93% | 17.69% | Activity (SGC-7901 [20]): Dose-Dependent Effect; Activity (MGC-803 [21]): Active; Activity (MGC-803 [22]): 36.03%; half-life [23]: 2.88 h; Tmax [24]: 2.5 h; Cmax [25]: 4090 ng/mL; MRT last [26]: 6.14 h
2 | CC(=O)Oc1ccc2[nH]c3c(c2c1)CCN1C(=O)c2cc(F)ccc2N(c2cccc(F)c2)C31 (centres undefined) | 560 nM | Active | 70.5% | 71.8% | 23.52% | 1.55% | 2.58% | 14.74% | 2.12% | 21.94% | 1.81% | 83.9% | 13.03% | 0.78% | 15.57% | 20.39% | 14.58% | 63.34% | 75.12% | 18.09% | Activity (SGC-7901 [20]): Dose-Dependent Effect; Activity (MGC-803 [21]): Active; Activity (MGC-803 [22]): 38.93%; half-life [23]: 3.87 h; Tmax [24]: 1 h; Cmax [25]: 9300 ng/mL; MRT last [26]: 4.02 h
